Read-outs that look alike come from different tables or passages of the source.
Columns and labels:
human IKK-β = target: T1, human IKK-β (Homo sapiens, UniProt O14920); experiment: IKK-β kinase inhibitory assay; format: biochemical; details: compounds of about 40 to 90% purity, read-out: In vitro activity grade (invitro, IC50)
T1 construct: A cDNA fragment encoding human IKK-β open reading frame was generated by PCR; His; made in house; host or cells: Sf21 insect cells (baculovirus); the GST-IκBα substrate was made in E. coli
T1 sequence (O14920 1-756): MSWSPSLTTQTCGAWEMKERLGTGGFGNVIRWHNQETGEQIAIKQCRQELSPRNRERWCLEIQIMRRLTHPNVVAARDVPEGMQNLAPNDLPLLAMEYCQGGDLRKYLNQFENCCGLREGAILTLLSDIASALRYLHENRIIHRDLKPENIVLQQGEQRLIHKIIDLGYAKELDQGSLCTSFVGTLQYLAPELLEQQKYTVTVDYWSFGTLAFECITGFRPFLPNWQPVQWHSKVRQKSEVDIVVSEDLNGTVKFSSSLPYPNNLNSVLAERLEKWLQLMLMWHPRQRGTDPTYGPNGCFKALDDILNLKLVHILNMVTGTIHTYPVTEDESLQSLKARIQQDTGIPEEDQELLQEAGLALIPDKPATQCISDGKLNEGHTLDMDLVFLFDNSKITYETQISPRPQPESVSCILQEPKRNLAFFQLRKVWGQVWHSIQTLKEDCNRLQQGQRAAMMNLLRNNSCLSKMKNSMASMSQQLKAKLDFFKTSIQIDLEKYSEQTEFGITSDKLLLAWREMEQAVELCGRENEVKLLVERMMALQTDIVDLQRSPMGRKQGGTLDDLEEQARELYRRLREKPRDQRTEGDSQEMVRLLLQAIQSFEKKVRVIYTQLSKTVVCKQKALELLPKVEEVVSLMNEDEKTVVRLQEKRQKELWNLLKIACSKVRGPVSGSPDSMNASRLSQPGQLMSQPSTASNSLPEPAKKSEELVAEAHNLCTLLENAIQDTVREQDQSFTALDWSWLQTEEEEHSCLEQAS
Source text: IKK-β Kinase Inhibitory Assay.
• (1) Preparation of IKK-β Kinase Protein. • A cDNA fragment encoding human IKK-β open reading frame was generated by PCR with the use of a pair of primers designed from the published sequence (Woronicz J D et al. (1997) Science 278,866-869). A template was obtained from Quickclone cDNA (Clontech) using Elongase™ Amplification kit (Life Technologies). The DNA fragments generated by PCR were gel-purified and subcloned into pBluescript. The cDNA fragment cloned in pBluescript was inserted into pcDNA3.1/His C KpnI/NotI, and transferred into pVL1393 SmaI/XbaI (Pharmingen) to construct a baculovirus transfer vector. Then the vector, together with the linearized baculovirus (BaculoGold™, Pharmingen) was used to transfect Sf21 cells (Invitrogen, San Diego, Calif.). Generated recombinant baculovirus was cloned and amplified in Sf21 cells, grown in TNM-FH insect cell medium (Life Technologies, Inc.) supplemented with 10% FCS, […] Gentamycin, 0.1% Pluronic F-68 (Life Technologies, Inc.) as suspension culture (200 ml in 1 L Erlenmeyer flask; 27° C.; 130 rpm). Sf21 cells were infected with this amplified virus with a multiplicity of infection of 5 following standard protocols (Crossen R, Gruenwald S (1997) Baculovirus Expression Vector System Instruction Manual, Pharmingen Corporation) and harvested 48 hrs. later. The cells were lysed to obtain the produced chimeric protein of IKK-β kinase fused by histidine (His-tagged IKK-beta). • (2) The Preparation of Purified GST-IκBα Fusion Proteins • An expression vector containing the nucleotide sequence encoding fusion protein of GST with amino acid residues 1 to 54 of IκBα under the control of an IPTG-inducible promoter was constructed. The expression vector was introduced in E. coli and the transformant was cultured and lysed to obtain a GST-IκBα fusion protein. Then the resulting GST-IκBα fusion protein was purified and biotinated for kinase assay. • (3) The Measurement of IKK-β Kinase Activity • The 96-well format kinase assay of IKK-β was performed to test the inhibitory activity of the compounds of the present invention. First, 5 μl of a test compound was put in the presence of 2.5% dimethyl sulfoxide (DMSO) in each well in a U-bottomed 96-well plate (Falcon). For control wells of background (BG) and total phosphorylation (TP), 5 μl of 2.5% DMSO was put. Recombinant IKK-β (final 0.6 μg/ml) and bio-GST-IκBα (1-54) (final 0.2 μM) were diluted in 25 μl of 2×kinase buffer β (40 mM Tris-HCl, pH 7.6, 40 mM MgCl2, 40 mM β-glycerophosphate, 40 mM p-nitrophenyl-phosphate, 2 mM EDTA, 40 mM creatine phosphate, 2 mM DTT, 2 mM Na3VO4, 0.2 mg/ml BSA and 0.8 mM phenylmethylsulfonyl fluoride) and transferred to the 96-well plate. Bio-GST-IκBα (1-54) in 25 μl of 2×kinase buffer β without IKK-β was transferred to BG wells. Then 20 μl of 12.5 μM ATP, 62.5 μCi/ml [γ-^33P] ATP (Amersham Pharmacia Biotech) was added and the resulting mixture was incubated for 2 hrs. at room temperature. The kinase reactions were terminated by the addition of 150 μl of termination buffer (100 mM EDTA, 1 mg/ml BSA, 0.2 mg NaN3). One handred and fifty μl of the sample was transferred to a streptavidin-coated, white MTP (Steffens Biotechniche Analysen GmbH #08114E14. FWD) to capture the biotinylated substrates. After 1 hr. of incubation, non-bound radioactivity was eliminated by washing the wells five times with 300 μl of washing buffer including 0.9% NaCl and 0.1% (w/v) Tween-20 with the use of a MW-96 plate washer (BioTec). The bound radioactivity was determined after the addition of 170 μl MicroScint-PS scintillation cocktail (Packard) using a TopCount scintillation counter. Syk Tyrosine Kinase Inhibitory Assay for Selectivity. • (1) Preparation of Syk Protein • A cDNA fragment encoding human Syk openreading frame was cloned from total RNA of human Burkitt's lymphoma B cell lines, Raji (American Type Culture Collection), with the use of RT-PCR method. […]

[1] = test system: RANTES production in response to TNF-α from A549 cells; experiment: RANTES production in response to TNF-α from A549 cells; format: cell-based, human; details: 100 ng/ml TNF-α, compounds of about 40 to 90% purity, read-out: Cellular activity grade (A549, IC50)

Row | SMILES | IC50 (human IKK-β) [nM] | IC50 ([1]; Homo sapiens, A549, 24 h) [nM] | IC50 ([1]; 24 hrs) [nM]
1 | N#Cc1c(-c2cccc(NC(=O)CN3CC=CC3)c2)cc(-c2ccccc2O)nc1N [Example 4-14] | 500 to 2000 | 1000 to 10000 | 
2 | N#Cc1c(-c2cccc(NC(=O)CCN3CCCC4CCCCC43)c2)cc(-c2ccccc2O)nc1N (stereo not drawn) [Example 4-15] | 500 to 2000 | 1000 to 10000 | 
3 | N#Cc1c(-c2cccc(NC(=O)CNC3CCCC3)c2)cc(-c2ccccc2O)nc1N [Example 4-17] | 500 to 2000 | 1000 to 10000 | 
4 | CCCNCC(=O)Nc1cccc(-c2cc(-c3ccccc3O)nc(N)c2C#N)c1 [Example 4-19] | 500 to 2000 | 1000 to 10000 | 
5 | CN(C)CC(=O)Nc1cccc(-c2cc(-c3ccccc3O)nc(N)c2C#N)c1 [Example 4-22] | 500 to 2000 | 1000 to 10000 | 
6 | COCCNCC(=O)Nc1cccc(-c2cc(-c3ccccc3O)nc(N)c2C#N)c1 [Example 4-24] | 500 to 2000 | > 10000 | 
7 | COCCNCC(=O)Nc1cc(-c2cc(-c3ccccc3O)nc(N)c2C#N)ccc1Cl [Example 4-25] | < 500 | > 10000 | 
8 | N#Cc1c(-c2ccc(Cl)c(NC(=O)CNCC3CC3)c2)cc(-c2ccccc2O)nc1N [Example 4-30] | 500 to 2000 | > 10000 | 
9 | COCCNCC(=O)Nc1cc(-c2cc(-c3ccccc3O)nc(N)c2C#N)ccc1OCC1CC1 [Example 4-32] | 2000 to 10000 | 1000 to 10000 | 
10 | CCCCNCC(=O)Nc1cc(-c2cc(-c3ccccc3O)nc(N)c2C#N)ccc1OCC1CC1 [Example 4-33] | > 10000 | > 10000 | 
11 | N#Cc1c(-c2ccc(OCC3CC3)c(NC(=O)CNCC3CC3)c2)cc(-c2ccccc2O)nc1N [Example 4-34] | > 10000 | 1000 to 10000 | 
12 | N#Cc1c(-c2ccc(OCC3CC3)c(NC(=O)CN3CCCCC3)c2)cc(-c2ccccc2O)nc1N [Example 4-35] | > 10000 | > 10000 | 
13 | CN(C)c1ccc(-c2cc(-c3ccccc3O)nc(N)c2C#N)cc1NC(=O)CCN1CCCCC1 [Example 4-36] | 500 to 2000 |  | 1000 to 10000
14 | COCCNCC(=O)Nc1cc(-c2cc(-c3ccccc3O)nc(N)c2C#N)ccc1N1CCC(NC(=O)C(F)(F)F)C1 (stereo not drawn) [Example 4-37] | < 500 | 1000 to 10000 | 
15 | N#Cc1c(-c2ccc(N3CCC(NC(=O)C(F)(F)F)C3)c(NC(=O)CNCC3CC3)c2)cc(-c2ccccc2O)nc1N (stereo not drawn) [Example 4-38] | < 500 | 1000 to 10000 | 
16 | N#Cc1c(-c2cccc(C(=O)O)c2)cc(-c2ccccc2O)nc1N [Example 5-1, Sodium 3-[2-amino-3-cyano-6-(2-hydroxyphenyl)-4-pyridinyl]benzoate] | 2000 to 10000 | > 10000 | 
17 | N#Cc1c(-c2ccc(C(=O)O)cc2)cc(-c2ccccc2O)nc1N [Example 5-02] | 500 to 2000 | > 10000 | 
18 | N#Cc1c(-c2ccccc2C(=O)O)cc(-c2ccccc2O)nc1N [Example 5-05] | 500 to 2000 | > 10000 | 

Results, then the compound that gave them:

Row | IC50 (human IKK-β) [nM] | IC50 ([1]; Homo sapiens, A549, 24 h) [nM] | IC50 ([1]; 24 hrs) [nM] | SMILES
19 | 500 to 2000 | 1000 to 10000 |  | N#Cc1c(-c2cccc(NC(=O)CN3CCN(C4CCCCC4)CC3)c2)cc(-c2ccccc2O)nc1N [Example 4-04]
20 | 2000 to 10000 | > 10000 |  | CC(=O)N1CCN(CC(=O)Nc2cccc(-c3cc(-c4ccccc4O)nc(N)c3C#N)c2)CC1 [Example 4-05]
21 | 500 to 2000 | 1000 to 10000 |  | CCN1CCN(CC(=O)Nc2cccc(-c3cc(-c4ccccc4O)nc(N)c3C#N)c2)CC1 [Example 4-06]
22 | 500 to 2000 | 1000 to 10000 |  | N#Cc1c(-c2cccc(NC(=O)CN3CCNCC3)c2)cc(-c2ccccc2O)nc1N [Example 4-07]
23 | 500 to 2000 | 1000 to 10000 |  | N#Cc1c(-c2cccc(NC(=O)CN3CCN(CCO)CC3)c2)cc(-c2ccccc2O)nc1N [Example 4-08]
24 | 500 to 2000 | 1000 to 10000 |  | CN1CCN(CCC(=O)Nc2cccc(-c3cc(-c4ccccc4O)nc(N)c3C#N)c2)CC1 [Example 4-10]
25 | 2000 to 10000 | 1000 to 10000 |  | N#Cc1c(-c2cccc(NC(=O)CCN3CCN(Cc4ccccc4)CC3)c2)cc(-c2ccccc2O)nc1N [Example 4-11]
26 | 500 to 2000 | 1000 to 10000 |  | CCN1CCN(CCC(=O)Nc2cccc(-c3cc(-c4ccccc4O)nc(N)c3C#N)c2)CC1 [Example 4-12]
27 | 500 to 2000 | 1000 to 10000 |  | N#Cc1c(-c2cccc(NC(=O)CCN3CCN(CCO)CC3)c2)cc(-c2ccccc2O)nc1N [Example 4-13]
28 | 500 to 2000 | 1000 to 10000 |  | CCN1CCC(N(CC)CCC(=O)Nc2cccc(-c3cc(-c4ccccc4O)nc(N)c3C#N)c2)C1 (stereo not drawn) [Example 4-16]
29 | < 500 | 1000 to 10000 |  | N#Cc1c(-c2cccc(NC(=O)CNCC3CC3)c2)cc(-c2ccccc2O)nc1N [Example 4-18]
30 | < 500 | > 10000 |  | N#Cc1c(-c2cccc(NC(=O)CNCCCO)c2)cc(-c2ccccc2O)nc1N [Example 4-20]
31 | 500 to 2000 | 1000 to 10000 |  | N#Cc1c(-c2cccc(NC(=O)CCNCC3CC3)c2)cc(-c2ccccc2O)nc1N [Example 4-21]
32 | 500 to 2000 | 1000 to 10000 |  | N#Cc1c(-c2cccc(NC(=O)CN3CCCC3)c2)cc(-c2ccccc2O)nc1N [Example 4-23]
33 | 500 to 2000 | > 10000 |  | CCOC(=O)C1CCN(CCC(=O)Nc2cccc(-c3cc(-c4ccccc4O)nc(N)c3C#N)c2)CC1 [Example 4-26]
34 | 2000 to 10000 | 1000 to 10000 |  | CCOC(=O)C1CCCN(CCC(=O)Nc2cccc(-c3cc(-c4ccccc4O)nc(N)c3C#N)c2)C1 (stereo not drawn) [Example 4-27]
35 | 2000 to 10000 | > 10000 |  | N#Cc1c(-c2cccc(NC(=O)CCN3CCC(C(=O)O)CC3)c2)cc(-c2ccccc2O)nc1N [Example 4-28]
36 | 500 to 2000 | > 10000 |  | N#Cc1c(-c2cccc(NC(=O)CCN3CCCC(C(=O)O)C3)c2)cc(-c2ccccc2O)nc1N (stereo not drawn) [Example 4-29]
